Data taken from BigSolDB 2.1.

COc1c2occc2c(OC)c2c(=O)cc(C)oc12
solubility (mole fraction)
Conditions | in DMSO | in ethanol | in isopropanol | in methanol | in n-butanol | in water
298.15 K | 0.0128 | 0.00255 | 0.00195 | 0.00271 | 0.00355 | 1.33e-05
303.15 K | 0.0131 | 0.00282 | 0.002 | 0.00272 | 0.00375 | 1.23e-05
308.15 K | 0.0131 | 0.00298 | 0.00209 | 0.003 | 0.00372 | 1.88e-05
313.15 K | 0.0132 | 0.00311 | 0.00228 | 0.00314 | 0.00399 | 1.88e-05
318.15 K | 0.0141 | 0.00338 | 0.00233 | 0.00318 | 0.00435 | 3.69e-05
323.15 K | 0.0152 | 0.00338 | 0.00253 | 0.00332 | 0.00529 | 9.02e-05

Conditions | solubility (mole fraction)
in PEG-200, 298.15 K | 0.00171
in PEG-200, 303.15 K | 0.00149
in PEG-200, 308.15 K | 0.00173
in PEG-200, 313.15 K | 0.00199
in PEG-200, 318.15 K | 0.00202
in PEG-200, 323.15 K | 0.00231
in PEG-400, 298.15 K | 0.00438
in PEG-400, 303.15 K | 0.00425
in PEG-400, 308.15 K | 0.00448
in PEG-400, 313.15 K | 0.00453
in PEG-400, 318.15 K | 0.00448
in PEG-400, 323.15 K | 0.00511
